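A five-concentration, 48-hour dose response in 96-well plates underlies each endpoint, interpolated linearly between surrounding concentrations. The concentration for full growth arrest is given as TGI.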
Assays:
Experiment in all cases: growth of human tumour cells (NCI), 48 h
[1] = test system: DLD-1 colon
[2] = test system: DMS 273 small cell lung
[3] = test system: HOP-92 NSCLC
[4] = test system: IGROV1 ovarian
[5] = test system: LXFL 529 NSCLC
[6] = test system: M19-MEL melanoma
[7] = test system: SF-539 CNS
[8] = test system: SK-MEL-5 melanoma
[9] = test system: SK-OV-3 ovarian
[10] = test system: SNB-19 CNS
[11] = test system: UACC-62 melanoma
[12] = test system: UO-31 renal

## CC(=O)c1ccc(OCC(O)CO)cc1 (stereo not drawn)
[1]
  TGI: > 100 µM
[2]
  TGI: > 100 µM
[3]
  TGI: > 100 µM
[4]
  TGI: > 100 µM
[5]
  TGI: > 100 µM
[6]
  TGI: > 100 µM
[7]
  TGI: > 100 µM
[8]
  TGI: > 100 µM
[9]
  TGI: > 100 µM
[10]
  TGI: > 100 µM
[11]
  TGI: > 100 µM
[12]
  TGI: > 100 µM

## COC(=O)/C=C(\C(=O)OC)c1c2c3c(cc(OC)c(OC)c3c3ccccc13)CCN2C
[1]
  TGI: > 100 µM
[2]
  TGI: 50.9 µM
[3]
  TGI: > 100 µM
[4]
  TGI: 99.4 µM
[5]
  TGI: > 100 µM
[6]
  TGI: > 100 µM
[7]
  TGI: 75.4 µM
[8]
  TGI: 34.3 µM
[9]
  TGI: > 100 µM
[10]
  TGI: > 100 µM
[11]
  TGI: > 100 µM
[12]
  TGI: > 100 µM

## CCCCCCCCCCCCCC(=O)OCC1OC(n2cc(F)c(=O)[nH]c2=O)C(NC(=O)OCc2ccccc2)C(OC(=O)CCCCCCCCCCCCC)C1O (stereo not drawn)
[1]
  TGI: > 100 µM
[2]
  TGI: > 100 µM
[3]
  TGI: > 100 µM
[4]
  TGI: > 100 µM
[5]
  TGI: > 100 µM
[6]
  TGI: > 100 µM
[7]
  TGI: > 100 µM
[8]
  TGI: > 100 µM
[9]
  TGI: > 100 µM
[10]
  TGI: > 100 µM
[11]
  TGI: > 100 µM
[12]
  TGI: > 100 µM

## COC(=O)C(C(=O)C(=O)Nc1nc(=S)[nH][nH]1)c1csc(-n2nc(-c3ccccc3)cc2-c2ccccc2)n1 (stereo not drawn)
[1]
  TGI: > 100 µM
[2]
  TGI: > 100 µM
[3]
  TGI: > 100 µM
[4]
  TGI: > 100 µM
[5]
  TGI: > 100 µM
[6]
  TGI: > 100 µM
[9]
  TGI: > 100 µM
[10]
  TGI: > 100 µM
[11]
  TGI: > 100 µM
[12]
  TGI: > 100 µM

## CC(=O)OC1CCCn2c1nc1c2C(=O)C(C)=C(N2CC2)C1=O (stereo not drawn)
[1]
  TGI: 10.9 µM
[2]
  TGI: 0.552 µM
[3]
  TGI: 54.6 µM
[4]
  TGI: 3.35 µM
[5]
  TGI: 1.66 µM
[6]
  TGI: 1.63 µM
[7]
  TGI: 1.43 µM
[8]
  TGI: 0.351 µM
[9]
  TGI: 0.965 µM
[10]
  TGI: 1.38 µM
[11]
  TGI: 0.77 µM
[12]
  TGI: 5.07 µM

## CNCc1cc(OC)ccc1-c1ccc(OC)c(OC)c1OC
[1]
  TGI: > 100 µM
[2]
  TGI: > 100 µM
[3]
  TGI: > 100 µM
[4]
  TGI: > 100 µM
[5]
  TGI: > 100 µM
[6]
  TGI: > 100 µM
[7]
  TGI: > 100 µM
[8]
  TGI: > 100 µM
[9]
  TGI: > 100 µM
[10]
  TGI: > 100 µM
[11]
  TGI: > 100 µM
[12]
  TGI: > 100 µM

## CC1SC2=NC3=C(c4ccccc4C3=O)C(c3ccc(Cl)cc3)N2C1=O (stereo not drawn)
[1]
  TGI: > 100 µM
[2]
  TGI: > 100 µM
[3]
  TGI: > 100 µM
[4]
  TGI: > 100 µM
[5]
  TGI: > 100 µM
[6]
  TGI: > 100 µM
[8]
  TGI: > 100 µM
[9]
  TGI: > 100 µM
[10]
  TGI: > 100 µM
[11]
  TGI: > 100 µM
[12]
  TGI: > 100 µM

## CC1=NOC(=O)/C1=C/c1cccc2ccccc12
[1]
  TGI: > 100 µM
[2]
  TGI: > 100 µM
[3]
  TGI: > 100 µM
[4]
  TGI: > 100 µM
[5]
  TGI: > 100 µM
[6]
  TGI: > 100 µM
[7]
  TGI: > 100 µM
[8]
  TGI: > 100 µM
[9]
  TGI: > 100 µM
[10]
  TGI: > 100 µM
[11]
  TGI: > 100 µM
[12]
  TGI: > 100 µM

## NNC(=O)CNC(=O)c1ccc(Cl)cc1Cl
[1]
  TGI: > 100 µM
[2]
  TGI: > 100 µM
[3]
  TGI: > 100 µM
[4]
  TGI: > 100 µM
[5]
  TGI: > 100 µM
[6]
  TGI: > 100 µM
[7]
  TGI: > 100 µM
[8]
  TGI: > 100 µM
[9]
  TGI: > 100 µM
[10]
  TGI: > 100 µM
[11]
  TGI: > 100 µM
[12]
  TGI: > 100 µM

## CC1C[C@H](C)CC(C(O)CC2CC(=O)N(Cc3ccccc3)C(=O)C2)C1O (stereo partly drawn)
[1]
  TGI: > 100 µM
[2]
  TGI: > 100 µM
[3]
  TGI: > 100 µM
[4]
  TGI: > 100 µM
[5]
  TGI: > 100 µM
[6]
  TGI: > 100 µM
[7]
  TGI: > 100 µM
[9]
  TGI: > 100 µM
[10]
  TGI: > 100 µM
[11]
  TGI: > 100 µM
[12]
  TGI: > 100 µM

## COc1ccc(C2CC(c3cc(C)ccc3O)=NC(N)=N2)cc1 (stereo not drawn)
[1]
  TGI: > 100 µM
[2]
  TGI: > 100 µM
[3]
  TGI: > 100 µM
[4]
  TGI: > 100 µM
[5]
  TGI: > 100 µM
[6]
  TGI: > 100 µM
[7]
  TGI: > 100 µM
[9]
  TGI: > 100 µM
[10]
  TGI: > 100 µM
[11]
  TGI: > 100 µM
[12]
  TGI: > 100 µM

## CCCCCCCCOCC(O)COC(=O)CCCCCCC (stereo not drawn)
[1]
  TGI: > 100 µM
[2]
  TGI: > 100 µM
[3]
  TGI: 82.3 µM
[4]
  TGI: > 100 µM
[5]
  TGI: > 100 µM
[6]
  TGI: > 100 µM
[8]
  TGI: > 100 µM
[9]
  TGI: > 100 µM
[10]
  TGI: > 100 µM
[11]
  TGI: > 100 µM
[12]
  TGI: > 100 µM

From PubChem BioAssay (NCI)
